The molecules below were run against T1, human GPR119 (Homo sapiens, UniProt Q8TDV5) (assay: cAMP assay (LANCE cAMP kit), activation of GPR119). Details: HEK293 cells expressing human GPR119, 30 minutes incubation.
T1 construct: expressed in transfected cells; host or cells: HEK293
T1 sequence (Q8TDV5 1-335): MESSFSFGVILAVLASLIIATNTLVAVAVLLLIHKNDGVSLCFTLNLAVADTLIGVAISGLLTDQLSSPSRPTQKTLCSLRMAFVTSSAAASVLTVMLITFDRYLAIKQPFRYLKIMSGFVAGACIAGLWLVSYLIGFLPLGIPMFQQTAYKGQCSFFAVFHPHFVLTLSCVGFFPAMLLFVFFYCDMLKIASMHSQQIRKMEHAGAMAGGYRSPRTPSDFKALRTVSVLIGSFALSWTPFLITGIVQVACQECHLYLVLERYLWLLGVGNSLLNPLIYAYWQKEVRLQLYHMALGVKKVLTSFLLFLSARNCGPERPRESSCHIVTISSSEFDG
Type: cell-based
Procedure: The ability of illustrative compounds of the invention to activate GPR119 and stimulate increases in cAMP levels was determined using the LANCE™ cAMP kit (Perkin Elmer). HEK293 cells expressing human GPR119 were maintained in culture flasks at 37° C./5% CO2 in DMEM containing 10% fetal bovine serum, 100 U/ml Pen/Strep, and 0.5 mg/ml geneticin. The media was changed to Optimem and cells were incubated for about 15 hours at 37° C./5% CO2. The Optimem was then aspirated and the cells were removed from the flasks using room temperature Hank's balanced saline solution (HBSS). The cells were pelleted using centrifugation (1300 rpm, 7 minutes, room temperature), then resuspended in stimulation buffer (HBSS, 0.1% BSA, 5 mM HEPES, 15 μM RO-20) at 2.5×10^6 cells/mL. Alexa Fluor 647-anti cAMP antibody (1:100) was then added to the cell suspension and incubated for 30 minutes. A representative Pyrimidine Ether Derivative (6 μl at 2× concentration) in stimulation buffer containing 2% DMSO were then added to white 384 well Matrix plates. Cell suspension mix (6 μl) was added to each well and incubated with the Pyrimidine Ether Derivative for 30 minutes. A cAMP standard curve was also created in each assay according to the kit protocol. Standard concentrations of cAMP in stimulation buffer (6 μl) were added to white 384 well plates. Subsequently, 6 μl of 1:100 anti-cAMP antibody was added to each well. Following the 30 minute incubation period, 12 μl of detection mix (included in kit) was added to all wells and incubated for 2-3 hours at room temperature. Fluorescence was detected on the plates using an Envision instrument. The level of cAMP in each well is determined by extrapolation from the cAMP standard curve.
Molecule `CC(C)(C)OC(=O)N1CCC(Oc2ncnc(OC3C4COCC3CN(C(=O)OC3(C)CC3)C4)c2F)CC1` (stereo not drawn) [Compound 1] has an EC50 of 500 to 1000 nM. `CC1(OC(=O)N2CC3COCC(C2)C3Oc2ncnc(OC3CCN(S(C)(=O)=O)CC3)c2F)CC1` (stereo not drawn) [Compound 2] showed an EC50 of 100 to 200 nM. `CC1(OC(=O)N2CC3COCC(C2)C3Oc2ncnc(OC3CCN(S(=O)(=O)CCC(F)(F)F)CC3)c2F)CC1` (stereo not drawn) [Compound 3] was tested, and the EC50 was under 100 nM. `CC1(OC(=O)N2CC3COCC(C2)C3Oc2ncnc(OC3CCN(S(=O)(=O)C4CC4)CC3)c2F)CC1` (stereo not drawn) [Compound 4] was tested, and the EC50 was 100 to 200 nM. `CC(C)S(=O)(=O)N1CCC(Oc2ncnc(OC3C4COCC3CN(C(=O)OC3(C)CC3)C4)c2F)CC1` (stereo not drawn) [Compound 5] gave an EC50 of under 100 nM. `CC1(OC(=O)N2CC3COCC(C2)C3Oc2ncnc(OC3CCN(S(=O)(=O)C(F)(F)F)CC3)c2F)CC1` (stereo not drawn) [Compound 6] gave an EC50 of 500 to 1000 nM. In the case of `CC1(OC(=O)N2CC3COCC(C2)C3Oc2ncnc(OC3CCN(S(=O)(=O)C4CCCC4)CC3)c2F)CC1` (stereo not drawn) [Compound 7], the EC50 is reported as 100 to 200 nM. `COCCS(=O)(=O)N1CCC(Oc2ncnc(OC3C4COCC3CN(C(=O)OC3(C)CC3)C4)c2F)CC1` (stereo not drawn) [Compound 8] gave an EC50 of 100 to 200 nM. Work on `CC(C)C(=O)N1CCC(Oc2ncnc(OC3C4COCC3CN(C(=O)OC3(C)CC3)C4)c2F)CC1` (stereo not drawn) [Compound 9] yielded an EC50 of 500 to 1000 nM. `CS(=O)(=O)N1CCC(Oc2ncnc(OC3C4COCC3CN(c3ncc(Cl)cn3)C4)c2F)CC1` (stereo not drawn) [Compound 10] gave an EC50 of under 100 nM. In the case of `CCCS(=O)(=O)N1CCC(Oc2ncnc(OC3C4COCC3CN(C(=O)OC3(C)CC3)C4)c2F)CC1` (stereo not drawn) [Compound 11], the EC50 is reported as under 100 nM. `CCS(=O)(=O)N1CCC(Oc2ncnc(OC3C4COCC3CN(C(=O)OC3(C)CC3)C4)c2F)CC1` (stereo not drawn) [Compound 12] was tested, and the EC50 was under 100 nM.

Reference: patent US8912206B2, “Pyrimidine ether derivatives and methods of use thereof” (Merck Sharp & Dohme Corp., priority 2009, dated 2014)
